We go through 22 molecules from patent publication US6541463B1, “Inhibitors of type 5 and type 3 17β-hydroxysteroid dehydrogenase and methods for their use” (Endorecherche, Inc., priority 1998, dated 2003).

In this experiment the target is T1, glucocorticoid receptor (Rattus norvegicus, UniProt P06536).
T1 construct: from tissue; host or cells: liver cytosol of male Sprague-Dawley rats
T1 sequence (P06536 1-795): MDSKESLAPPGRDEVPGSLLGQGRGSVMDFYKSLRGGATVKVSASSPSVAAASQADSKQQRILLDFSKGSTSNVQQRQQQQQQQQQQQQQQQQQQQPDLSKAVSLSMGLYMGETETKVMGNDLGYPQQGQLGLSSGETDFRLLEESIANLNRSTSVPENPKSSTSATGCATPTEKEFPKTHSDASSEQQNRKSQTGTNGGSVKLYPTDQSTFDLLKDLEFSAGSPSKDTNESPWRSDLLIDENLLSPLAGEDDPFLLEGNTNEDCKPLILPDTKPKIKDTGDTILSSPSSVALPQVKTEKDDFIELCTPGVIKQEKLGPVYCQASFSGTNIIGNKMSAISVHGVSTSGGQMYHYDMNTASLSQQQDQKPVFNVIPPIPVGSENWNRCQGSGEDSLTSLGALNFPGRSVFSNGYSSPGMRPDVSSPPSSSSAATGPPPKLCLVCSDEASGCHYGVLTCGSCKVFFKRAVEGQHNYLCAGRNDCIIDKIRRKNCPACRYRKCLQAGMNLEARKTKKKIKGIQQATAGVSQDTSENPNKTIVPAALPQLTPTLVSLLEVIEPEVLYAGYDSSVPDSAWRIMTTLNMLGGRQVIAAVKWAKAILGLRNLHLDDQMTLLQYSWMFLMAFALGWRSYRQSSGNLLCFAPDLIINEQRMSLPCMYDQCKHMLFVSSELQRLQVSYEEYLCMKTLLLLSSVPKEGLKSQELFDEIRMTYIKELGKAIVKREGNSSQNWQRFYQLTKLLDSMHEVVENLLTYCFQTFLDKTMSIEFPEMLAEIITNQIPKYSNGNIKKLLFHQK
The experiment is described as follows: Glucocorticoid receptor assay: inhibition of [3H]-dexamethasone binding, liver cytosol. The conditions noted are these: for inhibition at 1 µM / % Inhibition Glucocorticold Receptor E^−6 / % Inhibition Glucocorticoid Receptor E^−6: E^−6; for inhibition at 1 µM: read-out: % Inhibition Glucocorticold Receptor E^−6; for inhibition at 0.01 µM / % Inhibition Glucocorticold Receptor E^−8 / % Inhibition Glucocorticoid Receptor E^−8: E^−8; for inhibition at 0.01 µM: read-out: % Inhibition Glucocorticold Receptor E^−8. The protocol: The manner in which the percentage of inhibition is determined is described in “Other Tests; F-Glucocorticoid Receptor Assay”.
[6,7-^3H(N)]-Dexamethasone (39 Ci/mmol) was purchased from New England Nuclear (Lachine, Québec, Canada) while unlabeled dexametasone was obtained from Steraloids (Wilton, N.H.). All other chemicals were of analytical grade.
Stock solutions of the unlabeled steroids were kept at 4° C. in ethanol. The desired steroid solutions were then prepared by appropriate dilution in buffer B (10 mM Tris-HCl, 1.5 mM EDTA, 10 mM α-monothioglycerol, pH 7.4) containing 30% ethanol.
Male Sprague-Dawley rats weighing 200-300 g were obtained from Charles-River Inc. (St-Constant, Québec, Canada). The rats were killed by cervical dislocation and the liver were rapidly removed, dissected free from adhering tissue and frozen on dry-ice. Tissues were kept at −80° C. until use.
All procedures were performed at 4° C. Tissues were eminced and homogenized in 10 vol (w/v) of buffer A (25 mM Tris-HCl, 1.5 mM EDTA, 10 mM α-monothioglycerol, 10% glycerol, 10 mM sodium molybdate, pH 7.4) using a Polytron PT-10 homogenizer (Brinkmann Instruments, Canada) at a setting of 5 for two periods of 10 sec, with intervals of 10 sec for cooling. The homogenate was then centrifuged at 105,000×g for 90 min. The supernatant was used immediately for assay.
Glucocorticoid binding was measured using the dextran-coated charcoal adsorption technique. Incubations were performed at 0-4° C. for 16-18 h using 100 μl of cytosol, 100 μl of [^3H]-Dexamethasone (5 nM final) and 100 μl of unlabeled compounds at the indicated concentrations. Each concentration was done in triplicate. Assay was ended with 300 μl of DCC (2.5% Norit A and 0.25% Dextran T-70 in Buffer B). After 10 min of incubation, tubes were centrifuged at 2,000×g for 10 min. and decanted in vials with 6 ml of BCS liquid scintillation (New England Nuclear, Dupont). The radioactivity was measured in a Beckman counter at a counting efficiency of 35%.

SMILES strings stand for the structures. Like-named read-outs stand apart in the source and are kept apart here.

For the molecule `CC1(C)CCC2(CCC3C4CCc5cc(OS(C)(=O)=O)ccc5C4CCC32C)OC1=O` (centres unmarked) [EM-1365-CS], for the setting “Table 4′”, the inhibition at 1 µM came out at 5% and the inhibition at 0.01 µM was found to be 0%.
In the same order, the values of `COc1cc2c(cc1C)C1CCC3(C)C(CCC34CCC(C)(C)C(=O)O4)C1CC2` (centres unmarked) [EM-1412-CS] are 2% and 0%.
As to `CN1C(=O)C=C[C@]2(C)C3CC[C@@]4(C)C(CC[C@@]45CCCC(=O)O5)C3CCC12` (some centres unmarked) [EM-1122-CS], for the setting “Table 5 column 15”, the inhibition at 1 µM is 0% and the inhibition at 0.01 µM is 0%.
As to `CC1CCC2(CCC3C4CCc5cc(O)c([N+](=O)[O-])cc5C4CCC32C)OC1=O` [EM-1126, 2-Nitro-1,3,5(10)-estratrien-3-ol-17(R)-spiro-2′-(5′-methyl-6′-oxo)tetrahydropyran], where the note is “Table 4′”, the “% Inhibition Glucocorticold Receptor E^−6” value is listed as 0% and the “% Inhibition Glucocorticold Receptor E^−8” value worked out at 0%.
Consider `COCCOc1ccc2c(c1)CCC1C2CCC2(C)C1CCC21CCC(C)(C)C(=O)O1` [EM-1368-CS, 3-Methoxyethoxy-1,3,5(10)-estratrien-17(R)-spiro-2′-(5′,5′-dimethyl-6′-oxo)-tetrahydropyran], for which, for the setting “Table 4′”, the inhibition at 1 µM is 3% and the inhibition at 0.01 µM came to 3%.
Turning to `CC12C=CC(=O)C=C1C=CC1C2CCC2(C)C(=O)C3(CCCCC3)CC12` (centres unmarked) [CS-204], the “% Inhibition Glucocorticoid Receptor E^−6” value is on record as 0% and the “% Inhibition Glucocorticoid Receptor E^−8” value is 0%.
For `CC1CCC2(CCC3C4CCc5ccccc5C4CCC32C)OC1=O` (centres unmarked) [EM-1025], where the note is “Table 4′”, the inhibition at 1 µM was 0% and the inhibition at 0.01 µM was 0%.
In the case of `C[C@]12CCC(=O)C=C1C=C[C@@H]1[C@@H]2CC[C@]2(C)C(=O)C3(CC4CC4C3)C[C@@H]12` (some centres unmarked) [EM-1299, 4,6-Androstadien-3,17-dione-16-spirobicyclo[3′.1′.0′]-hexane], the “% Inhibition Glucocorticoid Receptor E^−6” value came to 0% and the “% Inhibition Glucocorticoid Receptor E^−8” value was 0%.
Regarding `CN(C)C(=O)c1ccc2c(c1)CCC1C2CCC2(C)C1CCC21CCC(C)(C)C(=O)O1` (centres unmarked) [EM-1403], for the setting “Table 4′”, the inhibition at 1 µM worked out at 0% and the inhibition at 0.01 µM turned out to be 0%.
Take `CC12CCC3c4ccc(F)cc4CCC3C1CCC21CCCC(=O)O1` (centres unmarked) [EM-1170-CS]: for the setting “Table 4′”, the inhibition at 1 µM was determined as 3% and the inhibition at 0.01 µM turned out to be 4%.
Consider `CCCC(=O)O[C@]1(C)C(=O)CCC2C3C=C(C)C4=CC(=O)CC[C@]4(C)C3CC[C@@]21C` (some centres unmarked) [EM-1078], for which the “% Inhibition Glucocorticoid Receptor E^−6” value is 94% and the “% Inhibition Glucocorticoid Receptor E^−8” value is recorded as 20%.
With `CC1(C)CC[C@@]2(CC[C@H]3[C@@H]4CCc5c(cc(Br)c(O)c5Br)[C@H]4CC[C@@]32C)OC1=O` [EM-1382-CS], under “Table 4′”, the “% Inhibition Glucocorticold Receptor E^−6” value is 4% and the “% Inhibition Glucocorticold Receptor E^−8” value came to 2%.
For `CCS(=O)(=O)Oc1ccc2c(c1)CCC1C2CCC2(C)C1CCC21CCC(C)(C)C(=O)O1` (centres unmarked) [EM-1364-CS], for the setting “Table 4′”, the inhibition at 1 µM amounted to 3% and the inhibition at 0.01 µM came out at 0%.
Take `CC(=O)O[C@]1(C)C(=O)CCC2C3C=C(C)C4=CC(=O)C=C[C@]4(C)C3CC[C@@]21C` (some centres unmarked) [CS-237]: the “% Inhibition Glucocorticoid Receptor E^−6” value was determined as 69% and the “% Inhibition Glucocorticoid Receptor E^−8” value is recorded as 7%.
For the molecule `CC1(C)CC[C@@]2(CCC3C4CCc5cc6oncc6cc5C4CC[C@@]32C)OC1=O` (stereo partly drawn) [EM-1407-CS, 1,3,5(10)-estratrien-(2,3-oximino)-17(R)-spiro-2′-(5′,5′-dimethyl-6′-oxo)tetrahydropyran], for the setting “Table 4′”, the inhibition at 1 µM turned out to be 0% and the inhibition at 0.01 µM is 0%.
Take `COCCOc1cc2c(cc1C(=O)O)C1CCC3(C)C(CCC34CCC(C)(C)C(=O)O4)C1CC2` [EM-1405, 2-Carboxy-3-(2″-methoxyethyloxy)-1,3,5(10)-estratrien-17(R)-spiro-2′-(5′,5′-dimethyl-6′-oxo)tetrahydropyran]: under “Table 4′”, the inhibition at 1 µM was 0% and the inhibition at 0.01 µM was 0%.
For the molecule `COc1ccc2c(c1)CCC1C2CCC2(C)C1CCC21CCC(C)(C)C(=O)O1` (centres unmarked) [EM-1370], for the setting “Table 4′”, the inhibition at 1 µM is 0% and the inhibition at 0.01 µM was 3%.
Take `COCCOc1cc2c(cc1C(F)(F)F)[C@H]1CC[C@@]3(C)[C@@H](CC[C@@]34CCC(C)(C)C(=O)O4)[C@@H]1CC2` [EM-1438, 3-(2′-Methoxyethoxy)-2-trifluoromethyl-1,3,5(10)-estratrien-17(R)-spiro-2′-(5′,5′-dimethyl-6′-oxo)tetrahydropyran]: under “Table 4′”, the “% Inhibition Glucocorticold Receptor E^−6” value turned out to be 0% and the “% Inhibition Glucocorticold Receptor E^−8” value came out at 1%.
For `COCCOc1ccc2c(c1)C(=O)CC1C2CCC2(C)C1CCC21CCC(C)(C)C(=O)O1` (centres unmarked) [EM-1408-CS], for the setting “Table 4′”, the inhibition at 1 µM stood at 0% and the inhibition at 0.01 µM came to 0%.
Regarding `CCOc1ccc2c(c1)CCC1C2CC[C@@]2(C)C1CC[C@@]21CCC(C)(C)C(=O)O1` (stereo partly drawn) [EM-1369, 3-Ethoxy-1,3,5(10)-estratrien-17(R)-spiro-2′-(5′,5′-dimethyl-6′-oxo)-tetrahydropyran], for the setting “Table 4′”, the inhibition at 1 µM was 2% and the inhibition at 0.01 µM came to 1%.
For `CSCCOc1ccc2c(c1)CCC1C2CCC2(C)C1CCC21CCCC(=O)O1` [CS-242, 3-Methylthioethyloxy-1,3,5(10)-estratrien-17(R)-spiro-2′-(6′-oxo) Tetrahydropyran], in that order: 0% and 0%.
For `CCC[C@]1(F)CC2C3C=CC4=CC(=O)CC[C@]4(C)C3CC[C@]2(C)C1=O` (some centres unmarked) [EM-1183], the “% Inhibition Glucocorticoid Receptor E^−6” value stood at 12% and the “% Inhibition Glucocorticoid Receptor E^−8” value was 0%.
